Test results published in patent publication US20210369652A1, “Nonhormonal Unisex Contraceptives” (The Regents of the University of California, priority 2019, published 2021).
Entries after “also recorded” stand apart in the source; their conditions may differ.

Experiments:
human sperm mitochondria = test: Human sperm mitochondrial membrane potential (MMP) assessment with MitoRed; format: cell-based; settings: 15 minutes incubation, 1 μM NEN or 0.75 μM BAM15, 45 nM MitoRed fluorescence
Experimental: Samples from each condition (at least 100 of sperm midpieces per condition) were then assessed for fluorescence intensity measured with 45 nM MitoRed, which is a cell membrane permeable rhodamine-based dye. MitoRed localizes to mitochondria, and emits red fluorescence. The interaction of Mito Red with mitochondria depends on the membrane potential of the mitochondria. Uncoupled mitochondria emit less fluorescence. Data are standard boxplots, as in (A). C) Effect of sMU on human capacitated sperm hyperactivated motility. Cells were capacitated as described (11) for 4 hours. 4 μM Progesterone was added 2 minutes before imaging to trigger hyperactivation (HA). Cells were assessed as either Hyperactivated or Not Hyperactivated. N>45 cells. Error bars represent 95% CI calculated through the Wilson/Brown method.

human capacitated sperm = test: Hyperactivated motility of capacitated human sperm triggered by progesterone; format: cell-based; settings: capacitated 4 hours; 4 μM progesterone; concentrations as low as 1 μM
Experimental: A) Human sperm were purified by swim-up method and their basal beat frequency (BF, in Hz) was measured as described in (Mannowetz, N., Naidoo, N. M., Choo, S. A., Smith, J. F. & Lishko, P. V. Slol is the principal potassium channel of human spermatozoa. eLife 2, e01009, doi:10.7554/eLife.01009 (2013)) in control HS solution ((1); in the presence of vehicle control ((2); […]. X's represent the mean of the sample, and dots represent individual data points. B) Human sperm mitochondrial membrane potential (MMP) assessment. Human sperm were incubated for 15 minutes in the presence of 0.1% DMSO (vehicle control), in the presence of 1 μM NEN or 0.75 μM […]. Samples from each condition (at least 100 of sperm midpieces per condition) were then assessed for fluorescence intensity measured with 45 nM MitoRed, which is a cell membrane permeable rhodamine-based dye. MitoRed localizes to mitochondria, and emits red fluorescence. The interaction of Mito Red with mitochondria depends on the membrane potential of the mitochondria. Uncoupled mitochondria emit less fluorescence. Data are standard boxplots, as in (A). C) Effect of sMU on human capacitated sperm hyperactivated motility. Cells were capacitated as described (11) for 4 hours. […] Cells were assessed as either Hyperactivated or Not Hyperactivated. […] Error bars represent 95% CI calculated through the Wilson/Brown method.

human sperm = test: Human sperm basal beat frequency; format: cell-based; settings: for sperm beat frequency / motility, result in words: human sperm, 1 μM NEN
Experimental: A) Human sperm were purified by swim-up method and their basal beat frequency (BF, in Hz) was measured as described in (Mannowetz, N., Naidoo, N. M., Choo, S. A., Smith, J. F. & Lishko, P. V. Slol is the principal potassium channel of human spermatozoa. eLife 2, e01009, doi:10.7554/eLife.01009 (2013)) in control HS solution ((1); in the presence of vehicle control ((2); […]. X's represent the mean of the sample, and dots represent individual data points. B) Human sperm mitochondrial membrane potential (MMP) assessment. Human sperm were incubated for 15 minutes in the presence of 0.1% DMSO (vehicle control), in the presence of 1 μM NEN or 0.75 μM […]. Samples from each condition (at least 100 of sperm midpieces per condition) were then assessed for fluorescence intensity measured with 45 nM MitoRed, which is a cell membrane permeable rhodamine-based dye. MitoRed localizes to mitochondria, and emits red fluorescence. The interaction of Mito Red with mitochondria depends on the membrane potential of the mitochondria. Uncoupled mitochondria emit less fluorescence. Data are standard boxplots, as in (A). C) Effect of sMU on human capacitated sperm hyperactivated motility. Cells were capacitated as described (11) for 4 hours. 4 μM Progesterone was added 2 minutes before imaging to trigger hyperactivation (HA). Cells were assessed as either Hyperactivated or Not Hyperactivated. N>45 cells. Error bars represent 95% CI calculated through the Wilson/Brown method.

ANT = target: T1, ANT (Mus musculus, UniProt P48962); test: Whole-IMM patch-clamp recording of H+ current (IH) in mitoplasts; format: biochemical, mice; settings: for ANT-mediated H+ current (IH), regulators: skeletal muscle mitoplast, 2 μM AA, then 1 mM bath ADP, step from 0 to -160 mV
T1 construct: functional analysis of mitochondrial ion channels and transporters in their native membrane environment; from tissue; host or cells: heart mitoplasts (WT and ANT1-/- mice); skeletal muscle mitoplasts
T1 sequence (P48962 2-298): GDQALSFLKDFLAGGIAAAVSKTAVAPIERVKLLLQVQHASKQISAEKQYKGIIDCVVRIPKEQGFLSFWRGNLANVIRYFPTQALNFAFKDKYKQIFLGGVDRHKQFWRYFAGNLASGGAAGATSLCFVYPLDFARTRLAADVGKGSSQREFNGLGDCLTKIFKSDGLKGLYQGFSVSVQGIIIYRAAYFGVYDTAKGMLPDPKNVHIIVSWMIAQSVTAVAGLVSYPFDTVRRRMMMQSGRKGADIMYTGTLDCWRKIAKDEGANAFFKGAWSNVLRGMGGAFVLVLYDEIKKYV
From the text: FIG. 3A-B is a pair of schematic diagrams depicting a mitochondrial patch-clamp. (A) Preparation of mitoplasts (vesicles of the whole IMM): (1) Isolation of mitochondria from cell lysate by centrifugation; (2) OMM removal using a low-pressure French press; (3) isolated mitoplasts in a KCl solution. Remnants of the OMM (arrow) are attached to the IMM. (B) Patch-clamp recording from mitoplasts. After formation of the gigaohm seal (mitoplast-attached configuration), the membrane patch under the pipette can be destroyed by high-amplitude voltage pulses to form a whole-mitoplast configuration for recording currents (I) across the whole IMM. Alternatively, the patch pipette can be withdrawn from the mitoplast to form an inside-out mode for recording single-channel activity.
FIG. 4 is a series of graphs (upper panels) and a schematic diagram (lower panel) showing regulators of ANT-mediated H^+ current (IH). […] Control current is shown in black. Middle panel: IH time course of the left panel. Skeletal muscle mitoplast. IH amplitudes were measured upon stepping from 0 to −160 mV. Right panel: ADP inhibition of IH in points 2 and 3. Remaining IH measured at −160 mV is shown as a percentage of control, n=8. Explanation of transient IH inhibition by cytosolic adenine nucleotides. ANT in c-state, with fatty acid (FA) anion in the translocation pathway, mediates IH (I). Cytosolic ADP^3− binds in c-state and expels FA anion/blocks translocation pathway, leading to IH inhibition (2). Upon ANT conformation change, ADP dissociates into matrix (pipette) solution (2 and 3). FA anion re-associates with ANT in m-state, restoring IH (4 and 5). Cytosolic ADP cannot inhibit IH while AAC is in m-state (5). Preliminary data from (Bertholet, A. M. Chouchani., E. T.; Kazak, L.; Angelin, A.; Fedorenko, A.; Long, J. Z.; Vidoni, S.; Garrity, R.; Cho, J.; Terada, N.; Wallace, D.C.; Spiegelman, B. M.; and Kirichok, Y. Proton Transport is an Integral Function of the Mitochondrial ADP/ATP Carrier Nature July; 571(7766):515-520 (2019)).
Right panel: IH current densities at −160 mV for WT and ANT1^−/− mitoplasts. b, Representative currents induced by 50 μM DNP in WT and ANT1^−/− mitoplasts of heart. Right panel: IH current densities induced by 50 and 200 μM DNP at −160 mV in WT and ANT1^−/− mitoplasts.
We employed direct patch-clamp recording from vesicles of the whole intact inner mitochondrial membrane (IMM; so-called mitoplasts, FIG. 3), which allow high-resolution functional analysis of mitochondrial ion channels and transporters in their native membrane environment^10,36,37. […]
We recorded DNP-induced IH in heart of ANT1-deficient mice (ANT1 is the dominant isoform of ANT in this tissue).

Row | Structure (SMILES) | sperm mitochondrial uncoupling (sMU) as assessed by mitochondrial depolarization (human sperm mitochondria) | hyperactivation (hyperactivated motility) (human capacitated sperm) | sperm beat frequency / motility, result in words (human sperm) | ANT-mediated H+ current (IH), regulators (ANT) | further results
1 | O=C(Nc1ccc([N+](=O)[O-])cc1Cl)c1cc(Cl)ccc1O [niclosamide] | uncouple sperm mitochondria | inhibited hyperactivation | significantly decreases sperm motility | – | sperm mitochondrial uncoupling (sMU) as assessed by mitochondrial depolarization (human sperm mitochondria; listed as Niclosamide): uncouples mitochondria; sperm beat frequency (human sperm; human sperm purified by swim-up, decreased from 14 Hz, concentrations as low as 1 μM): 6 Hz
2 | NCCO.O=C(Nc1ccc([N+](=O)[O-])cc1Cl)c1cc(Cl)ccc1O [NEN, niclosamide ethanolamine] | uncouples human sperm mitochondria; also recorded: strong sMU | significantly decreases | significantly decreases | – | –
3 | Nc1ncnc2c1ncn2[C@@H]1O[C@H](COP(=O)(O)OP(=O)(O)O)[C@@H](O)[C@H]1O [ADP] | – | – | – | transient inhibition | –
4 | C=C1[C@@H]2CC[C@H]3[C@]4(C)C[C@H](O[C@@H]5O[C@H](CO)[C@@H](OS(=O)(=O)O)[C@H](OS(=O)(=O)O)[C@H]5OC(=O)CC(C)C)CC(C(=O)O)(C(=O)O)[C@H]4CC[C@]3(C2)[C@H]1O [CATR, carboxyatractyloside] | – | – | – | – | inhibition of IH mediated by ANT (ANT; whole-IMM patch-clamp, classical ANT inhibitor): blocked
5 | CCCCC/C=C\C/C=C\C/C=C\C/C=C\CCCC(=O)O [arachidonic acid] | – | – | – | activated | –
6 | O=[N+]([O-])c1ccc(O)c([N+](=O)[O-])c1 [DNP, 2,4-dinitrophenol] | uncouple sperm mitochondria | – | – | – | proton leak (IH) via ANT induced by uncoupler (ANT; whole-IMM patch-clamp, 50 and 200 μM DNP, heart mitoplasts WT and ANT1-/-, -160 mV): strongly and specifically activates proton leak via ANT; also recorded: primarily depends on ANT
